Active and inactive are the calls of the source. The calls are words filed in the database; no cut-off is given here.
Legend:
A549 [1] = experiment: Inhibition of colony formation in human A549 cells incubated for 6 days by crystal violet staining based analysis; assay type: functional, cell-based; conditions: dose 1-20 nM, time 6.0 day
HeLa = experiment: Antiproliferative activity against human HeLa cells assessed as inhibition of cell growth measured after 48 hrs by MTT assay; assay type: functional, cell-based
A549 [2] = experiment: Antitumor activity against human A549 cells xenografted in BALB/c mouse assessed as upregulation of cleaved PARP expression in tumor at 10 mg/kg, ip administered every other day for 25 days by Western blotting analysis; assay type: functional, organism-based; conditions: time 25.0 day
A549 [3] = experiment: Inhibition of colony formation in human A549 cells at 20 nM incubated for 6 days by crystal violet staining based analysis; assay type: functional, cell-based; conditions: time 6.0 day
Tubulin (Sus scrofa) = Tubulin (Sus scrofa) (UniProt P02554+P02550); experiment: Inhibition of porcine brain tubulin polymerization at 10 uM measured at 1 min interval for 60 mins by fluorescence based analysis
A549 [4] = experiment: Induction of cell cycle arrest in human A549 cells assessed as accumulation at G1 phase at 10 nM incubated for 24 hrs by PI staining based flow cytometry (Rvb= 65.68%); assay type: functional
A549 [5] = experiment: Antitumor activity against human A549 cells xenografted in BALB/c mouse assessed as reduction in EGFR phosphorylation at S473 residue in tumor at 5 to 10 mg/kg, ip administered every other day for 25 days by Western blotting analysis; assay type: functional, organism-based; conditions: dose 5-10 mg/kg, time 25.0 day
A549 [6] = experiment: Antitumor activity against human A549 cells xenografted in BALB/c mouse assessed as decrease in CD-31 expression in tumor at 10 mg/kg, ip administered every other day for 25 days by immunohistochemistry analysis; assay type: functional, organism-based; conditions: time 25.0 day
A549 [7] = experiment: Antiproliferative activity against human A549 cells expressing lentivirus RNAi VTI-96660 assessed as inhibition of cell growth measured after 48 hrs by MTT assay; assay type: functional, cell-based
SK-OV-3 = experiment: Antiproliferative activity against human SK-OV-3 cells assessed as inhibition of cell growth measured after 48 hrs by MTT assay; assay type: functional, cell-based; conditions: SK-OV-3, 48 h
[8] = Toxicity in BALB/c mouse assessed as change in body weight at 10 mg/kg, ip; assay type: organism-based; conditions: in vivo
B16-F10 [9] = experiment: Antimigratory activity against mouse B16-F10 cells assessed as inhibition of cell migration at 20 nM and incubated for 12 hrs by scratch wound healing assay (reference value: 81.9 +/- 0.64%); assay type: functional; set-up: scale not given: the % may be the effect or the level left
A549 [10] = experiment: Induction of apoptosis in human A549 cells assessed as late apoptotic cells at 20 nM incubated for 24 hrs by annexin V-FITC/propidium iodide staining based flow cytometry analysis (reference value: 0.37%); assay type: functional
A549 [11] = experiment: Antitumor activity against human A549 cells xenografted in BALB/c mouse assessed as tumor growth inhibition at 10 mg/kg, ip administered every other day for 25 days; assay type: functional; conditions: A549, 600 h, time 25 day, read-out: TGI
[12] = Toxicity in BALB/c nude mouse xenografted with human A549 cells assessed as pathological changes in kidney at 5 to 10 mg/kg, ip administered every other day for 25 days by hematoxylin and eosin staining based microscopic analysis; assay type: organism-based; conditions: in vivo, 600 h, dose 5-10 mg/kg, time 25 day
[13] = Toxicity in BALB/c mouse assessed as adverse effect at 10 mg/kg, ip; assay type: organism-based; conditions: in vivo
B16-F10 [14] = experiment: Inhibition of cell migration in mouse B16-F10 cells assessed as total number of cells migrated at 20 nM incubated for 12 hrs by crystal violet staining based transwell assay (reference value: 692 +/- 11); assay type: functional
B16-F10 [15] = experiment: Antimigratory activity against mouse B16-F10 cells assessed as inhibition of cell migration at 40 nM and incubated for 12 hrs by scratch wound healing assay (reference value: 81.9 +/- 0.64%); assay type: functional; set-up: scale not given: the % may be the effect or the level left
A549 [16] = experiment: Induction of apoptosis in human A549 cells assessed as upregulation of Bad protein at 10 to 40 nM measured after 48 hrs by Western blot analysis; assay type: functional, cell-based; conditions: dose 10-40 nM
A549 [17] = experiment: Induction of cell cycle arrest in human A549 cells assessed as accumulation at G1 phase at 20 nM incubated for 24 hrs by PI staining based flow cytometry (Rvb= 65.68%); assay type: functional
A549 [18] = experiment: Induction of apoptosis in human A549 cells assessed as downregulation of Bcl-2 protein at 10 to 40 nM measured after 48 hrs by Western blot analysis; assay type: functional, cell-based; conditions: dose 10-40 nM
[19] = Toxicity in BALB/c nude mouse xenografted with human A549 cells assessed as pathological changes in lung at 5 to 10 mg/kg, ip administered every other day for 25 days by hematoxylin and eosin staining based microscopic analysis; assay type: organism-based; conditions: in vivo, 600 h, dose 5-10 mg/kg, time 25 day
A549 [20] = experiment: Induction of apoptosis in human A549 cells assessed as viable cells at 20 nM incubated for 24 hrs by annexin V-FITC/propidium iodide staining based flow cytometry analysis (reference value: 96.44%); assay type: functional; conditions: read-out: Activity
A549 [21] = experiment: Induction of apoptosis in human A549 cells assessed as late apoptotic cells at 10 nM incubated for 24 hrs by annexin V-FITC/propidium iodide staining based flow cytometry analysis (reference value: 0.37%); assay type: functional
A2780 = experiment: cells; conditions: Homo sapiens, A2780, 48 h
Description: Antiproliferative activity against human A2780 cells assessed as inhibition of cell growth incubated for 48 hrs by MTT assay

A549 [22] = experiment: Antitumor activity against human A549 cells xenografted in BALB/c mouse assessed as tumor weight at 10 mg/kg, ip administered every other day for 25 days; assay type: functional, organism-based; conditions: time 25.0 day
HepG2 = experiment: Antiproliferative activity against human HepG2 cells assessed as inhibition of cell growth measured after 48 hrs by MTT assay; assay type: functional, cell-based; conditions: HepG2, 48 h
A549 [23] = experiment: Inhibition of cell migration in human A549 cells assessed as total number of cells migrated at 5 nM incubated for 12 hrs by crystal violet staining based transwell assay (reference value: 724 +/- 16); assay type: functional
A549 [24] = experiment: Antiproliferative activity against human A549 cells expressing lentivirus RNAi VTI-96658 assessed as inhibition of cell growth measured after 48 hrs by MTT assay; assay type: functional, cell-based
A549 [25] = experiment: Induction of cell cycle arrest in human A549 cells assessed as accumulation at S phase at 40 nM incubated for 24 hrs by PI staining based flow cytometry (Rvb= 20.94%); assay type: functional
[26] = Half life in Sprague-Dawley rat at 1 mg/kg, iv by LC-MS analysis; assay type: ADME, organism-based; conditions: in vivo
[27] = Toxicity in BALB/c nude mouse xenografted with human A549 cells assessed as pathological changes in liver at 5 to 10 mg/kg, ip administered every other day for 25 days by hematoxylin and eosin staining based microscopic analysis; assay type: organism-based; conditions: in vivo, 600 h, dose 5-10 mg/kg, time 25 day
A549 [28] = experiment: Antitumor activity against human A549 cells xenografted in BALB/c mouse assessed as tumor weight at 5 mg/kg, ip administered every other day for 25 days; assay type: functional, organism-based; conditions: time 25.0 day
[29] = Toxicity in BALB/c nude mouse xenografted with human A549 cells assessed as pathological changes in spleen at 5 to 10 mg/kg, ip administered every other day for 25 days by hematoxylin and eosin staining based microscopic analysis; assay type: organism-based; conditions: in vivo, 600 h, dose 5-10 mg/kg, time 25 day
B16-F10 [30] = experiment: Inhibition of cell migration in mouse B16-F10 cells assessed as total number of cells migrated at 10 nM incubated for 12 hrs by crystal violet staining based transwell assay (reference value: 692 +/- 11); assay type: functional
[31] = Volume of distribution in Sprague-Dawley rat at 1 mg/kg, iv by LC-MS analysis; assay type: ADME, organism-based; conditions: in vivo

Tubulin (Sus scrofa), sequence (P02550 whole entry, looked up): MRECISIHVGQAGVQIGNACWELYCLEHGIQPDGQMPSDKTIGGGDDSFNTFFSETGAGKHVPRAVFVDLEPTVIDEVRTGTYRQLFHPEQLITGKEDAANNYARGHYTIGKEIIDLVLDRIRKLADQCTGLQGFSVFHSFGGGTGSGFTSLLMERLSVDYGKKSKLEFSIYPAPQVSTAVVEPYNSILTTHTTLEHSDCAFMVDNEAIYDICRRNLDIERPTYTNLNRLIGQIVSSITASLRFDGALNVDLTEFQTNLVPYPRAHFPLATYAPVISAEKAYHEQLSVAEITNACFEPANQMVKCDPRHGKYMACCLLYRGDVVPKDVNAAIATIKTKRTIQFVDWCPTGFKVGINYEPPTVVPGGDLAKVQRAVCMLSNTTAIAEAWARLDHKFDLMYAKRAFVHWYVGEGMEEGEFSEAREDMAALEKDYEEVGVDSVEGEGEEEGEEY
Tubulin (Sus scrofa), sequence (P02554 whole entry, looked up): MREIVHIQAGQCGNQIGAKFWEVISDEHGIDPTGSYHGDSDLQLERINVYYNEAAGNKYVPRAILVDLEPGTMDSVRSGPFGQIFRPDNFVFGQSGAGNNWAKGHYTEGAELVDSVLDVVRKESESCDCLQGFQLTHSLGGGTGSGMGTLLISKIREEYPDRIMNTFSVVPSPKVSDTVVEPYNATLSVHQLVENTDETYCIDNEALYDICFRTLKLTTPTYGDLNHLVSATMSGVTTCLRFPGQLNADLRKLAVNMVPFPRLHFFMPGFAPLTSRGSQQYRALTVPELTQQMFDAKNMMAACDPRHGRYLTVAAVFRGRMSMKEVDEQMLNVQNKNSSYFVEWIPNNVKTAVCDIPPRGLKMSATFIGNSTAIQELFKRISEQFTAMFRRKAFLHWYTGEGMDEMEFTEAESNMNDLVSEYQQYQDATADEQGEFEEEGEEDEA

IC50 (HeLa): 3.6 nM | inhibition (Tubulin (Sus scrofa)): Active | IC50 (SK-OV-3): 1.5 nM | IC50 (A2780): 16 nM | IC50 (HepG2): 1.8 nM | t1/2 [26]: 13.2 min | Vd [31]: 1.3 L/kg
Compound: COc1cccc(Nc2cc(Nc3cccc(NC(=O)C4CC4)c3)ncn2)c1
inhibition (A549 [1]): Dose-Dependent Effect | Activity (A549 [2]): Active | inhibition (A549 [3]): Active | Activity (A549 [4]): 58.47% | Activity (A549 [5]): inactive | Activity (A549 [6]): Active | Activity (A549 [7]): Active | Activity [8]: Non-Toxic | Activity (B16-F10 [9]): 39.7% | Activity (A549 [10]): 16.31% | inhibition in vivo at 10 mg/kg (A549 [11]): 65.4% | Activity [12]: Non-Toxic | Activity [13]: Non-Toxic | Activity (B16-F10 [14]): 319 | Activity (B16-F10 [15]): 29.1% | Activity (A549 [16]): Active | Activity (A549 [17]): 48% | Activity (A549 [18]): Active | Activity [19]: Non-Toxic | viability at 0.02 µM (A549 [20]): 76% | Activity (A549 [21]): 9.78% | Activity (A549 [22]): Active | Activity (A549 [23]): 635 | Activity (A549 [24]): Active | Activity (A549 [25]): 15.31% | Activity [27]: Non-Toxic | Activity (A549 [28]): Active | Activity [29]: Non-Toxic | Activity (B16-F10 [30]): 510
